Tests used:
[1] = tested on: A549-ACE2 infected with SARS-CoV-2; assay: morphology score (similarity to uninfected cells); higher = more like uninfected cells; details: 24 h
Vero E6 [2] = assay: relative viability EC50 (midpoint between 100% and the lowest measured viability); higher = less toxic; details: 72 h
HepG2 [3] = assay: as above; details: 72 h
U2OS [4] = assay: as above; details: 72 h
Caco-2 [5] = assay: as above; details: 72 h
[6] = tested on: A549-ACE2 infected with SARS-CoV-2; assay: cell count relative to DMSO; higher = less toxic; details: 24 h
[7] = tested on: A549-ACE2 infected with SARS-CoV-2; assay: SARS-CoV-2 infection rate relative to DMSO; higher = more infection; details: 24 h
Vero E6 [8] = assay: cell viability relative to DMSO; higher = less toxic; details: 72 h
HepG2 [9] = assay: as above; details: 72 h
U2OS [10] = assay: as above; details: 72 h
Caco-2 [11] = assay: as above; details: 72 h
A549-ACE2 [12] = assay: drug-induced phospholipidosis relative to tamoxifen; higher = more phospholipidosis
Vero E6 [13] = assay: drug sensitivity score (DSS) for viability; higher = more toxic; extreme values may be limits of the assay; details: 72 h
HepG2 [14] = assay: as above; details: 72 h
U2OS [15] = assay: as above; details: 72 h
Caco-2 [16] = assay: as above; details: 72 h
Calu-3 [17] = assay: relative viability EC50 (midpoint between 100% and the lowest measured viability); higher = less toxic; details: 72 h
A549-ACE2 [18] = assay: phospholipidosis EC50; higher = less potent phospholipidosis inducer
Calu-3 [19] = assay: cell viability relative to DMSO; higher = less toxic; details: 72 h
Calu-3 [20] = assay: drug sensitivity score (DSS) for viability; higher = more toxic; extreme values may be limits of the assay; details: 72 h

O=C(Nc1ccc(-c2ccncc2)cc1)N[C@H](CO)c1ccccc1
Details | SARS-CoV-2 infection rate, [7] [%] | cell count, [6] [%] | cell viability, Caco-2 [11] [%] | cell viability, HepG2 [9] [%] | cell viability, U2OS [10] [%] | cell viability, Vero E6 [8] [%] | morphology score, [1]
1 nM | – | – | 99.4 | 96.7 | 98.6 | 97 | –
10 nM | – | – | 98.6 | 94.7 | 96.3 | 98.2 | –
0.1 µM | 98 | 105 | – | – | – | – | 0.27
100 nM | – | – | 96.1 | 105 | 99.2 | 98 | –
0.3 µM | 101 | 112 | – | – | – | – | 0.23
1 µM | 94 | 106 | – | – | – | – | 0.26
1000 nM | – | – | 95.3 | 102 | 97.5 | 94.2 | –
3 µM | 110 | 91 | – | – | – | – | -0.17
10000 nM | – | – | 96.4 | 84.8 | 94.7 | 77 | –

Details | drug sensitivity score | relative viability EC50 [µM]
Caco-2 [5] | – | > 10
Caco-2 [16] | 0 | –
HepG2 [3] | – | > 10
HepG2 [14] | 0.2 | –
U2OS [4] | – | > 10
U2OS [15] | 0 | –
Vero E6 [2] | – | > 10
Vero E6 [13] | 1.6 | –

drug-induced phospholipidosis [%], A549-ACE2 [12]
Details | 0.3 µM | 0.833333 µM | 3.33333 µM | 6.66667 µM | 10 µM | 30 µM
24 h | 3.51 | 2.55 | 2.66 | 3.66 | 1.91 | 3.72
48 h | 2.8 | 0.36 | -0.35 | 3.11 | 1.09 | 6.28
72 h | 2.59 | -2.02 | -0.767 | -0.334 | -0.186 | 6.14

CSc1ccc2c(c1)N(CCC1CCCCN1C)c1ccccc1S2 (stereo not drawn) [thioridazine]
Details | SARS-CoV-2 infection rate [%] | cell count [%] | cell viability [%] | morphology score | phospholipidosis EC50 [µM]
A549-ACE2 [18], 24 h | – | – | – | – | 3.21
A549-ACE2 [18], 48 h | – | – | – | – | 4.53
A549-ACE2 [18], 72 h | – | – | – | – | 5.9
Caco-2 [11], 1 nM | – | – | 110 | – | –
Caco-2 [11], 10 nM | – | – | 100 | – | –
Caco-2 [11], 100 nM | – | – | 105 | – | –
Caco-2 [11], 1000 nM | – | – | 105 | – | –
Caco-2 [11], 10000 nM | – | – | 69.5 | – | –
Calu-3 [19], 1 nM | – | – | 104 | – | –
Calu-3 [19], 10 nM | – | – | 110 | – | –
Calu-3 [19], 100 nM | – | – | 96.8 | – | –
Calu-3 [19], 1000 nM | – | – | 96.2 | – | –
Calu-3 [19], 10000 nM | – | – | 31.4 | – | –
HepG2 [9], 1 nM | – | – | 105 | – | –
HepG2 [9], 10 nM | – | – | 110 | – | –
HepG2 [9], 100 nM | – | – | 104 | – | –
HepG2 [9], 1000 nM | – | – | 102 | – | –
HepG2 [9], 10000 nM | – | – | 44.5 | – | –
U2OS [10], 1 nM | – | – | 105 | – | –
U2OS [10], 10 nM | – | – | 103 | – | –
U2OS [10], 100 nM | – | – | 102 | – | –
U2OS [10], 1000 nM | – | – | 103 | – | –
U2OS [10], 10000 nM | – | – | 74.7 | – | –
Vero E6 [8], 1 nM | – | – | 106 | – | –
Vero E6 [8], 10 nM | – | – | 103 | – | –
Vero E6 [8], 100 nM | – | – | 104 | – | –
Vero E6 [8], 1000 nM | – | – | 102 | – | –
Vero E6 [8], 10000 nM | – | – | 69.7 | – | –
[1], 0.1 µM | – | – | – | 0.31 | –
[1], 0.3 µM | – | – | – | 0.1 | –
[1], 1 µM | – | – | – | 0.34 | –
[1], 3 µM | – | – | – | 0.84 | –
[6], 0.1 µM | – | 106 | – | – | –
[6], 0.3 µM | – | 104 | – | – | –
[6], 1 µM | – | 110 | – | – | –
[6], 3 µM | – | 121 | – | – | –
[7], 0.1 µM | 94 | – | – | – | –
[7], 0.3 µM | 101 | – | – | – | –
[7], 1 µM | 82 | – | – | – | –
[7], 3 µM | 21 | – | – | – | –

Details | drug sensitivity score | relative viability EC50 [µM]
Caco-2 [16] | 1.1 | –
Calu-3 [17] | – | 2.72
Calu-3 [20] | 4.3 | –
HepG2 [3] | – | 3.36
HepG2 [14] | 2.8 | –
U2OS [15] | 0.8 | –
Vero E6 [13] | 1.2 | –

drug-induced phospholipidosis [%], A549-ACE2 [12]
Details | 0.3 µM | 0.833333 µM | 3.33333 µM | 6.66667 µM | 10 µM | 30 µM
24 h | 14.9 | 4.83 | 47.8 | 79.3 | 86 | 44.9
48 h | 9.22 | 4.87 | 28.5 | 86.4 | 99.3 | –
72 h | 7.14 | 2.71 | 20 | 83.7 | 117 | –

Cc1ncc(NC(=O)c2ccc(CN3CCN(C)CC3)c(C(F)(F)F)c2)cc1Nc1nccc(-c2cccnc2)n1 [flumatinib]
Details | SARS-CoV-2 infection rate [%] | cell count [%] | cell viability [%] | morphology score | phospholipidosis EC50 [µM]
A549-ACE2 [18], 24 h | – | – | – | – | 3.17
A549-ACE2 [18], 48 h | – | – | – | – | 4.74
A549-ACE2 [18], 72 h | – | – | – | – | 5.39
Caco-2 [11], 1 nM | – | – | 105 | – | –
Caco-2 [11], 10 nM | – | – | 107 | – | –
Caco-2 [11], 100 nM | – | – | 101 | – | –
Caco-2 [11], 1000 nM | – | – | 95.5 | – | –
Caco-2 [11], 10000 nM | – | – | 83.2 | – | –
Calu-3 [19], 1 nM | – | – | 104 | – | –
Calu-3 [19], 10 nM | – | – | 92.7 | – | –
Calu-3 [19], 100 nM | – | – | 102 | – | –
Calu-3 [19], 1000 nM | – | – | 100 | – | –
Calu-3 [19], 10000 nM | – | – | 93.1 | – | –
HepG2 [9], 1 nM | – | – | 96.4 | – | –
HepG2 [9], 10 nM | – | – | 108 | – | –
HepG2 [9], 100 nM | – | – | 102 | – | –
HepG2 [9], 1000 nM | – | – | 93.5 | – | –
HepG2 [9], 10000 nM | – | – | 39.9 | – | –
Vero E6 [8], 1 nM | – | – | 95.8 | – | –
Vero E6 [8], 10 nM | – | – | 101 | – | –
Vero E6 [8], 100 nM | – | – | 99.3 | – | –
Vero E6 [8], 1000 nM | – | – | 97.4 | – | –
Vero E6 [8], 10000 nM | – | – | 84.3 | – | –
[1], 0.3 µM | – | – | – | 0.25 | –
[1], 3 µM | – | – | – | 0.65 | –
[1], 10 µM | – | – | – | 0.69 | –
[1], 30 µM | – | – | – | 0 | –
[6], 0.3 µM | – | 105 | – | – | –
[6], 3 µM | – | 120 | – | – | –
[6], 10 µM | – | 124 | – | – | –
[6], 30 µM | – | 117 | – | – | –
[7], 0.3 µM | 96 | – | – | – | –
[7], 3 µM | 59 | – | – | – | –
[7], 10 µM | 45 | – | – | – | –
[7], 30 µM | 19 | – | – | – | –

Details | drug sensitivity score | relative viability EC50 [µM]
Caco-2 [5] | – | > 10
Caco-2 [16] | 0.8 | –
Calu-3 [17] | – | > 10
Calu-3 [20] | 0 | –
HepG2 [3] | – | 2.28
HepG2 [14] | 4.3 | –
Vero E6 [2] | – | > 10
Vero E6 [13] | 0.5 | –

drug-induced phospholipidosis [%], A549-ACE2 [12]
Details | 0.3 µM | 0.833333 µM | 3.33333 µM | 6.66667 µM | 10 µM | 30 µM
24 h | 4.03 | 13.9 | 49.2 | 98.5 | 106 | 5.86
48 h | 3.51 | 7.4 | 29.5 | 74.1 | 89.4 | –
72 h | 4.57 | 8.79 | 24.7 | 66.2 | 84.5 | –

COc1ccc2cc1Oc1ccc(cc1)C[C@H]1c3c(cc4c(c3Oc3cc5c(cc3OC)CCN(C)[C@@H]5C2)OCO4)CCN1C [cepharanthine]
Details | SARS-CoV-2 infection rate, [7] [%] | cell count, [6] [%] | cell viability, Caco-2 [11] [%] | cell viability, Calu-3 [19] [%] | cell viability, HepG2 [9] [%] | cell viability, U2OS [10] [%] | cell viability, Vero E6 [8] [%] | morphology score, [1]
1 nM | – | – | 93.5 | 105 | 99.5 | 95.7 | 95.7 | –
10 nM | – | – | 102 | 107 | 87.8 | 104 | 98.8 | –
100 nM | – | – | 105 | 99.3 | 95.9 | 97 | 96 | –
0.3 µM | 98 | 104 | – | – | – | – | – | 0.04
1000 nM | – | – | 108 | 96.5 | 87.7 | 97.7 | 88.9 | –
3 µM | 75 | 111 | – | – | – | – | – | 0.53
10 µM | 69 | 122 | – | – | – | – | – | 0.79
10000 nM | – | – | 93.1 | 78.7 | 93.7 | 86.5 | 92.9 | –
30 µM | 27 | 104 | – | – | – | – | – | 0.49

Details | drug sensitivity score | relative viability EC50 [µM]
Caco-2 [5] | – | > 10
Caco-2 [16] | 0 | –
Calu-3 [17] | – | > 10
Calu-3 [20] | 1.2 | –
HepG2 [3] | – | > 10
HepG2 [14] | 0 | –
U2OS [4] | – | > 10
U2OS [15] | 0.3 | –
Vero E6 [2] | – | > 10
Vero E6 [13] | 0 | –

drug-induced phospholipidosis [%], A549-ACE2 [12]
Details | 0.3 µM | 0.833333 µM | 3.33333 µM | 6.66667 µM | 10 µM | 30 µM
24 h | 9.38 | 2.99 | 21.4 | 34.2 | 49.7 | 34.6
48 h | 6.7 | 5.05 | 19.4 | 29.3 | 35.4 | –
72 h | 6.61 | 3.04 | 15.2 | 24.3 | 32.4 | –

Reference: the supplement of paper PMC13380429
